Measured values taken from US10894777B2, “TG2 inhibitor piperazine compounds and uses thereof” (UNIVERSITY OF OTTAWA, priority 2016, dated 2021).

Test system: 1321N cells
Assay: Agarose colony formation assay, TG2-null 1321N cells
Type: cell-based, human
Conditions: 10 μM, 2 weeks
Method: Agarose colony formation assay. Agarose colony formation assay was conducted as described (Horman, S. R. et al., J. Biomol. Screen 18(10):1298-308, 2013; Zhang, K. et al., Tumour Biol. 35(3):2537-48, 2014) using 6-well plates and 5,000 cells in each well. 10 μM NC9 or DMSO was added to every layer at the start of the experiments. 2 mL liquid MEM containing 10 μM NC9 or DMSO was used to cover the agarose and it was changed 3 times a week. Colony growth was monitored every day and at the end of 10-15 days, the colonies were fixed with 4% paraformaldehyde, stained with 0.005% crystal violet, washed with PBS twice and 40 random pictures were taken from each treatment group. A person blinded for the treatments measured the area of the colonies using ImageJ program and the volumes were calculated from the area data under the assumption that the colonies are perfect spheres. The volumes were used to compare the effect of NC9 on colony growth.

With `C=CC(=O)NCCCC[C@H](NC(=O)OCc1ccccc1)C(=O)NCCOCCOCCNS(=O)(=O)c1cccc2c(N(C)C)cccc12` [NC9] the “colony growth, 1321N” value was “no effect”.
